In US7414132B2, “Opioid receptor antagonists” (Eli Lilly and Company, priority 2003, dated 2008):

Assays:
Assay type in all cases: biochemical
[1] = target: delta opioid receptor (DOR) (Homo sapiens, UniProt P41143); assay: SPA-based GTP-γ-S binding assay, delta opioid receptor; conditions: membranes, GTP-γ-[35S] SPA; antagonist assay with agonist DPDPE 30 nM; read-out: In Vitro Ki Delta
Experimental: (§1) An SPA-based GTP-γ-S assay format was developed based on previous opioid (Emmerson et al., J. Pharm Exp Ther 278, 1121, 1996; Horng et al., Society for Neuroscience Abstracts, 434.6, 2000) and muscarinic (DeLapp et al., JPET 289, 946, 1999) assay formats. Membranes were re-suspended in 20 mM HEPES, 100 mM NaCl, 5 mM MgCl2, 1 mM DTT, and 1 mM EDTA. Fifty (50) […] of GTP-γ-[35S], compound, membrane suspension (20 microgram/well), and wheat germ agglutinin coated SPA beads (1 mg/well) were added to clear bottom 96 well assay plates. GDP ([…]) was added to the membrane solution prior to addition to the assay plates. Plates were sealed and incubated for four hours at room temperature then placed in a refrigerator overnight to allow the beads to settle. Signal stability at 4° C. was determined to be >60 hours. Plates were warmed to room temperature and counted in a Wallac Microbeta scintillation counter.
(§2) For antagonist assays, specific agonists were added at the following concentrations: (MOR) DAMGO 1 micromolar, (DOR) DPDPE 30 nM, (KOR) U69593 300 nM. Kb's were determined by Cheng-Prusoff equation (see Cheng and Prusoff, Biochem. Pharmacol. 22, 3099, 1973).

[2] = target: kappa opioid receptor (KOR) (Homo sapiens, UniProt P41145); assay: SPA-based GTP-γ-S binding assay, kappa opioid receptor; conditions: membranes, GTP-γ-[35S] SPA; antagonist assay with agonist U69593 300 nM; read-out: In Vitro Ki Kappa
Chain of kappa opioid receptor (KOR) (P41145 whole entry): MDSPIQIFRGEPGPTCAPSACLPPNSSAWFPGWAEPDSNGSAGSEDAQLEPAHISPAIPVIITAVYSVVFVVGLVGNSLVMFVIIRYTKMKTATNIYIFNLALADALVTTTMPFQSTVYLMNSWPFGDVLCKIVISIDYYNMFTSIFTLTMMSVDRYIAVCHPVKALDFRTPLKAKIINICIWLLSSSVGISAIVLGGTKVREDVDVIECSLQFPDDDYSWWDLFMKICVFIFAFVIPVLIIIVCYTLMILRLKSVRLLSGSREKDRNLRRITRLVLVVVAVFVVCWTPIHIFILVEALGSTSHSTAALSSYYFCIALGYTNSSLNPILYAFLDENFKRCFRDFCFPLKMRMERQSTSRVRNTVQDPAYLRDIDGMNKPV
Experimental: as §1, §2

mu opioid receptor (MOR) = mu opioid receptor (MOR) (Homo sapiens, UniProt P35372); assay: SPA-based GTP-γ-S binding assay, mu opioid receptor; conditions: membranes, GTP-γ-[35S] SPA; antagonist assay with agonist DAMGO 1 micromolar; read-out: In Vitro Ki Mu
Chain of mu opioid receptor (MOR) (P35372 whole entry): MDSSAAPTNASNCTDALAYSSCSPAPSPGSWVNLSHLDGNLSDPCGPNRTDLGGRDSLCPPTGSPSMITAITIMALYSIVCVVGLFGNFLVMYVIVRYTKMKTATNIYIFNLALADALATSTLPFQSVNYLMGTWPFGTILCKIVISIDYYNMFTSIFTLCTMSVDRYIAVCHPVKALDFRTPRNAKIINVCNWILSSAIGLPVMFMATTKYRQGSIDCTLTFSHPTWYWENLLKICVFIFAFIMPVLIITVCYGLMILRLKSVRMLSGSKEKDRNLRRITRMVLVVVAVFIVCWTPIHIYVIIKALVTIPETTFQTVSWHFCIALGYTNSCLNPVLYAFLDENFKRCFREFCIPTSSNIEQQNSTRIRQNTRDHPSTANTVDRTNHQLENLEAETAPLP
Experimental: as §1, §2

Chain of delta opioid receptor (DOR) (P41143 whole entry): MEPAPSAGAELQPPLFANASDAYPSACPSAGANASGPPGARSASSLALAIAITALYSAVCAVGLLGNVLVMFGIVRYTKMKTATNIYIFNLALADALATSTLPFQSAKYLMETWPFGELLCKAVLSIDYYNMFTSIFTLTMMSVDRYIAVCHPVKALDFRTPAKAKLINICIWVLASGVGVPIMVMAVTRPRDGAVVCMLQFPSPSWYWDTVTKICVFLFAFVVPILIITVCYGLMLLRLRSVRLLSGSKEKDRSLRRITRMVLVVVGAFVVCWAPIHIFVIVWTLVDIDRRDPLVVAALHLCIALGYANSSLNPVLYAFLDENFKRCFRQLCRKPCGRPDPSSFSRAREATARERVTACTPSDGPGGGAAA

CC(C)CCNCc1ccc(Oc2ccc(/C(N)=N/O)cn2)cc1 [Example 2, N-Hydroxy-6-{4-[(3-methyl-butylamino)-methyl]-phenoxy}-nicotinamidine]
Ki [1]: 269 nM | Ki [2]: 117 nM | Ki (mu opioid receptor (MOR)): 43.4 nM

CC(C)CCNCc1ccc(Oc2ccc(C(=N)N)cn2)cc1 [Example 3, 6-{4-[(3-Methyl-butylamino)-methyl]-phenoxy}-nicotinamidine]
Ki [1]: 485 nM | Ki [2]: 134 nM | Ki (mu opioid receptor (MOR)): 46.1 nM

CC(C)CCNCc1ccc(Oc2ccc(C3=NCCN3)cn2)cc1 [Example 4, {4-[5-(4,5-Dihydro-1H-imidazol-2-yl)-pyridin-2-yloxy]-benzyl}-(3-methyl-butyl)-amine]
Ki [1]: 120 nM | Ki [2]: 34.1 nM | Ki (mu opioid receptor (MOR)): 9.5 nM

c1csc(CCNCc2ccc(Oc3ccc(C4=NCCN4)cn3)cc2)c1 [Example 5, {4-[5-(4,5-Dihydro-1H-imidazol-2-yl)-pyridin-2-yloxy]-benzyl}-(2-thiophen-2yl-ethyl)amine]
Ki [1]: 370 nM | Ki [2]: 32.8 nM | Ki (mu opioid receptor (MOR)): 16.4 nM

CC(C)CCNCc1ccc(Oc2ccc(/C(N)=N/C#N)cn2)cc1 [Example 8, N-Cyano-6-{4-[(3-methyl-butylamino)-methyl]-phenoxy}-nicotinamidine]
Ki [1]: 178 nM | Ki [2]: 43.2 nM | Ki (mu opioid receptor (MOR)): 7.83 nM

CC(C)CCNCc1ccc(Oc2ccc(-c3ncc[nH]3)cn2)cc1 [Example 10, {4-[5-(1H-Imidazol-2-yl)-pyridin-2-yloxy]-benzyl}-(3-methyl-butyl)-amine]
Ki [1]: 214 nM | Ki [2]: 40.1 nM | Ki (mu opioid receptor (MOR)): 5.77 nM

CC(C)CCNCc1ccc(Oc2ccc3c(N)noc3c2)cc1 [Example 11, 6-{4-[(3-Methyl-butylamino)-methyl]-phenoxy}-benzo[d]isoxazol-3-ylamine]
Ki [1]: 81.1 nM | Ki [2]: 47.5 nM | Ki (mu opioid receptor (MOR)): 5.81 nM
